Measured values taken from patent US20190248834A1, “ENDOMORPHIN-2, TETRAPEPTIDE DERIVATIVES THEREOF, AND USES THEREOF” (priority 2016, published 2019).
Non-standard residues stand in square brackets, D forms with d. pGlu = O=C1CC[C@@H](C(=O)O)N1

How the values were obtained:
Type in all cases: in vivo, human
[1] = system: very severe osteoarthritis of the knees; experiment: Example 45: analgesic effect on osteoarthritic knees, topical lotion; settings: 1% (w/w) lotion
Method: One gram of the tetrapeptide derivative N-Pg-Tyr-Pro-Phe-Phe-NH2(SEQ ID NO: 44) was dissolved in propylene glycol (33 ml) and diisopropyl adipate (33 ml), and the resultant solution was mixed with an oil-in-water emulsion (33 g) to yield a light lotion containing 1% (w/w) of […] (SEQ ID NO: 44). This lotion was generously applied topically to the knees and lower legs of a subject, having very severe osteoarthritis of the knees for many years. After topical application of the lotion to the lower legs and knees, plastic film was applied to cover the treated areas. The plastic film was removed 8 hours later. […] Pain began to return after about 4 days.

headache = experiment: Example 65: analgesic effect on headache, topical; settings: 0.6% (w/v) in WEP442, topical
Description: Several days after the incident causing the injury, they developed a bothersome headache, concentrated to the temporal areas.

[2] = system: pain in the muscles of the neck; experiment: Example 57: analgesic effect on stress pain in muscles of the neck, topical; settings: 0.6% (w/v) in WEP442, topical
Method: A farmer suffered substantial pain in the muscles of their neck the day after ploughing a field for several hours. During that time, they had almost constantly strained their neck muscles looking backward to monitor the performance of the plough behind. The pain was such that it disabled them from turning their head even slightly. […] Reapplication of the solution at that time again relieved the pain for another 4 hours. With repeated applications, they were able to perform usual farm maintenance work for the entire day. After a night's rest, the pain subsided spontaneously.

How did the “time to return of pain” value [1] turn out when “N-Pg-Tyr-Pro-Phe-Phe-NH2 ([pGlu]YPFF-NH2; SMILES NC(=O)[C@H](Cc1ccccc1)NC(=O)[C@H](Cc1ccccc1)NC(=O)[C@@H]1CCCN1C(=O)[C@H](Cc1ccc(O)cc1)NC(=O)[C@@H]1CCC(=O)N1)” was run?
The value was “about 4 days”.

What about the pain relief ([1]; under plastic film 8 hours, daily for 3 days) of the same substance?
Its pain relief is “pain had subsided almost completely”.

And the headache relief (headache)?
The headache relief was “almost immediate, complete relief of the headache”.

And the “duration of pain relief” value [2]?
Its value is “about 4 hours”.

And the pain relief [2]?
Its pain relief is “almost completely relieved”.
